Measured values taken from ChEMBL document CHEMBL3885881, “DrugMatrix”.

Species on record: Rattus norvegicus
Assay: DrugMatrix - Regimen: Daily Repeat
Type: toxicity, organism-based, Sprague-Dawley
Set-up: regimen Daily Repeat, gender Male, age 6-8 weeks
Conditions: in vivo, sc, route subcutaneous, […]; for ABSOLUTE BASOPHIL / ABSOLUTE EOSINOPHIL / ABSOLUTE LYMPHOCYTE / ABSOLUTE MONOCYTE / ABSOLUTE SEGMENTED NEUTROPHIL / BASOPHIL / EOSINOPHIL / ERYTHROCYTE COUNT / HEMATOCRIT / HEMOGLOBIN / LEUKOCYTE COUNT / LYMPHOCYTE / MEAN CORPUSCULAR HEMOGLOBIN / MEAN CORPUSCULAR HEMOGLOBIN CONCENTRATION / MEAN CORPUSCULAR VOLUME / MONOCYTE / NEUTROPHIL / NUCLEATED RED BLOOD CELLS / PLATELET COUNT: tissue Blood; for ALANINE AMINOTRANSFERASE / ALBUMIN / ALKALINE PHOSPHATASE / ASPARTATE AMINOTRANSFERASE / BLOOD UREA NITROGEN / CARBON DIOXIDE / CHLORIDE / CHOLESTEROL / CREATINE PHOSPHOKINASE / CREATININE / GLUCOSE / LACTATE DEHYDROGENASE / LIPASE / PHOSPHORUS / POTASSIUM / SODIUM / TOTAL BILIRUBIN / TOTAL PROTEIN / URIC ACID: tissue Plasma
[1] = 2 mg/kg, 120 h, dose level Low, time 5 day
[2] = 17 mg/kg, 72 h, dose level High, time 3 day
[3] = 17 mg/kg, 120 h, dose level High, time 5 day

SMILES: CCC(=O)O[C@]1(C(=O)CCl)[C@@H](C)C[C@H]2[C@@H]3CCC4=CC(=O)C=C[C@]4(C)[C@@]3(F)[C@@H](O)C[C@@]21C [CLOBETASOL PROPIONATE]
- ABSOLUTE BASOPHIL [1]: 0 CELLS/uL
- ABSOLUTE EOSINOPHIL [1]: 128.67 CELLS/uL
- ABSOLUTE LYMPHOCYTE [1]: 583 CELLS/uL
- ABSOLUTE MONOCYTE [1]: 17.33 CELLS/uL
- ABSOLUTE SEGMENTED NEUTROPHIL [1]: 7437.67 CELLS/uL
- BASOPHIL [1]: 0%
- EOSINOPHIL [1]: 1.33%
- ERYTHROCYTE COUNT [1]: 6.32 x10E6/uL
- HEMATOCRIT [1]: 40.2%
- HEMOGLOBIN [1]: 14.5 G/DL
- LEUKOCYTE COUNT [1]: 8.17 x10E3/uL
- LYMPHOCYTE [1]: 6.67%
- MEAN CORPUSCULAR HEMOGLOBIN [1]: 23.07 pg
- MEAN CORPUSCULAR HEMOGLOBIN CONCENTRATION [1]: 36.1 G/DL
- MEAN CORPUSCULAR VOLUME [1]: 63.83 fL
- MONOCYTE [1]: 0.33%
- NEUTROPHIL [1]: 91.67%
- NUCLEATED RED BLOOD CELLS [1]: 0 /100WBC
- PLATELET COUNT [1]: 805.67 x10E3/uL
- ALANINE AMINOTRANSFERASE [1]: 191.67 u/L
- ALBUMIN [1]: 4.53 G/DL
- ALKALINE PHOSPHATASE [1]: 392 u/L
- ASPARTATE AMINOTRANSFERASE [1]: 342 u/L
- BLOOD UREA NITROGEN [1]: 24.33 mg/dL
- CARBON DIOXIDE [1]: 19.67 mmol/L
- CHLORIDE [1]: 102.67 MEQ/L
- CHOLESTEROL [1]: 160 mg/dL
- CREATINE PHOSPHOKINASE [1]: 1604 u/L
- CREATININE [1]: 0.28 mg/dL
- GLUCOSE [1]: 604.67 mg/dL
- LACTATE DEHYDROGENASE [1]: 516.33 u/L
- LIPASE [1]: 10.33 u/L
- PHOSPHORUS [1]: 11.93 mg/dL
- POTASSIUM [1]: 4.7 MEQ/L
- SODIUM [1]: 143.1 MEQ/L
- TOTAL BILIRUBIN [1]: 0.7 mg/dL
- TOTAL PROTEIN [1]: 6.67 G/DL
- URIC ACID [1]: 0.9 mg/dL
- ABSOLUTE BASOPHIL [2]: 0 CELLS/uL
- ABSOLUTE EOSINOPHIL [2]: 24 CELLS/uL
- ABSOLUTE LYMPHOCYTE [2]: 383 CELLS/uL
- ABSOLUTE MONOCYTE [2]: 0 CELLS/uL
- ABSOLUTE SEGMENTED NEUTROPHIL [2]: 2026.33 CELLS/uL
- BASOPHIL [2]: 0%
- EOSINOPHIL [2]: 1%
- ERYTHROCYTE COUNT [2]: 5.77 x10E6/uL
- HEMATOCRIT [2]: 36.77%
- HEMOGLOBIN [2]: 13.07 G/DL
- LEUKOCYTE COUNT [2]: 2.43 x10E3/uL
- LYMPHOCYTE [2]: 15.67%
- MEAN CORPUSCULAR HEMOGLOBIN [2]: 22.7 pg
- MEAN CORPUSCULAR HEMOGLOBIN CONCENTRATION [2]: 35.57 G/DL
- MEAN CORPUSCULAR VOLUME [2]: 63.9 fL
- MONOCYTE [2]: 0%
- NEUTROPHIL [2]: 83.33%
- NUCLEATED RED BLOOD CELLS [2]: 0 /100WBC
- PLATELET COUNT [2]: 1160 x10E3/uL
- ALANINE AMINOTRANSFERASE [2]: 95 u/L
- ALBUMIN [2]: 5.23 G/DL
- ALKALINE PHOSPHATASE [2]: 460.67 u/L
- ASPARTATE AMINOTRANSFERASE [2]: 128.33 u/L
- BLOOD UREA NITROGEN [2]: 25.67 mg/dL
- CARBON DIOXIDE [2]: 23.33 mmol/L
- CHLORIDE [2]: 101.5 MEQ/L
- CHOLESTEROL [2]: 162.67 mg/dL
- CREATINE PHOSPHOKINASE [2]: 209.33 u/L
- CREATININE [2]: 0.29 mg/dL
- GLUCOSE [2]: 571.33 mg/dL
- LACTATE DEHYDROGENASE [2]: 160.33 u/L
- LIPASE [2]: 10.5 u/L
- PHOSPHORUS [2]: 10 mg/dL
- POTASSIUM [2]: 4.82 MEQ/L
- SODIUM [2]: 141.8 MEQ/L
- TOTAL BILIRUBIN [2]: 0.2 mg/dL
- TOTAL PROTEIN [2]: 7.47 G/DL
- URIC ACID [2]: 0.4 mg/dL
- ABSOLUTE BASOPHIL [3]: 0 CELLS/uL
- ABSOLUTE EOSINOPHIL [3]: 214.67 CELLS/uL
- ABSOLUTE LYMPHOCYTE [3]: 340.67 CELLS/uL
- ABSOLUTE MONOCYTE [3]: 76.33 CELLS/uL
- ABSOLUTE SEGMENTED NEUTROPHIL [3]: 17401.67 CELLS/uL
- BASOPHIL [3]: 0%
- EOSINOPHIL [3]: 1%
- ERYTHROCYTE COUNT [3]: 6.25 x10E6/uL
- HEMATOCRIT [3]: 38.87%
- HEMOGLOBIN [3]: 14.47 G/DL
- LEUKOCYTE COUNT [3]: 18.03 x10E3/uL
- LYMPHOCYTE [3]: 2%
- MEAN CORPUSCULAR HEMOGLOBIN [3]: 23.17 pg
- MEAN CORPUSCULAR HEMOGLOBIN CONCENTRATION [3]: 37.23 G/DL
- MEAN CORPUSCULAR VOLUME [3]: 62.2 fL
- MONOCYTE [3]: 0.33%
- NEUTROPHIL [3]: 96.67%
- NUCLEATED RED BLOOD CELLS [3]: 0 /100WBC
- PLATELET COUNT [3]: 927.33 x10E3/uL
- ALANINE AMINOTRANSFERASE [3]: 204.67 u/L
- ALBUMIN [3]: 3.67 G/DL
- ALKALINE PHOSPHATASE [3]: 242.33 u/L
- ASPARTATE AMINOTRANSFERASE [3]: 271.33 u/L
- BLOOD UREA NITROGEN [3]: 24.67 mg/dL
- CARBON DIOXIDE [3]: 22 mmol/L
- CHLORIDE [3]: 99.33 MEQ/L
- CHOLESTEROL [3]: 122.33 mg/dL
- CREATINE PHOSPHOKINASE [3]: 1143.67 u/L
- CREATININE [3]: 0.2 mg/dL
- GLUCOSE [3]: 515.33 mg/dL
- LACTATE DEHYDROGENASE [3]: 439.33 u/L
- LIPASE [3]: 9.67 u/L
- PHOSPHORUS [3]: 12.77 mg/dL
- POTASSIUM [3]: 4.7 MEQ/L
- SODIUM [3]: 140.6 MEQ/L
- TOTAL BILIRUBIN [3]: 0.73 mg/dL
- TOTAL PROTEIN [3]: 5.7 G/DL
- URIC ACID [3]: 1.07 mg/dL
